pIC50: −log10 of the molar value. Blank lines part the entries; values can stand above or below the compound they belong to.
Experiments:
[1] = biological target: histone deacetylase activity (HeLa nuclear extract); assay: HDAC fluorescent activity assay (Biomol Fluor de Lys), HeLa nuclear extract; type: biochemical; conditions: Fluor de Lys substrate
Method: The ability of compounds to inhibit histone deacetylase activities was measured using the commercially available HDAC fluorescent activity assay from Biomol. In brief, the Fluor de Lys™ substrate, a lysine with an epsilon-amino acetylation, is incubated with the source of histone deacetylase activity (HeLa nuclear extract) in the presence or absence of inhibitor.
Deacetylation of the substrate sensitises the substrate to Fluor de Lys™ developer, which generates a fluorophore. Thus, incubation of the substrate with a source of HDAC activity results in an increase in signal that is diminished in the presence of an HDAC inhibitor.
Data are expressed as a percentage of the control, measured in the absence of inhibitor, with background signal being subtracted from all samples, as follows: — % activity=((S^i−B)/(S^o−B))×100 where S^i is the signal in the presence of substrate, enzyme and inhibitor, S^o is the signal in the presence of substrate, enzyme and the vehicle in which the inhibitor is dissolved, and B is the background signal measured in the absence of enzyme.
(§1) IC50 values were determined by non-linear regression analysis, after fitting the results of eight data points to the equation for sigmoidal dose response with variable slope (% activity against log concentration of compound), using Graphpad Prism software.
Histone deacetylase activity from crude nuclear extract derived from HeLa cells was used for screening. The preparation, purchased from 4C (Seneffe, Belgium), was prepared from HeLa cells harvested whilst in exponential growth phase. The nuclear extract is prepared according to Dignam JD1983 Nucl. Acid. Res. 11, 1475-1489, snap frozen in liquid nitrogen and stored at −80° C. The final buffer composition was 20 mM Hepes, 100 mM KCl, 0.2 mM EDTA, 0.5 mM DTT, 0.2 mM PMSF and 20% (v/v) glycerol.
Results of testing the compounds of the examples in this assay are given in the second column of Table 1 below.

HUT = assay: Cell inhibition assay (SRB cell viability), HUT; type: cell-based
Method: (§2) The corresponding cancer cell lines (Hela, U937 and HUT) growing in log phase were harvested and seeded at 1000 cells/well (200 ul final volume) into 96-well tissue culture plates. Following 24 h of cell growth cells were treated with compounds (final concentration of 20 uM). Plates were then re-incubated for a further 72 h before a sulphorhodamine B (SRB) cell viability assay was conducted according to Skehan 1990 J Natl Canc Inst 82, 1107-1112.
(§3) Data were expressed as a percentage inhibition of the control, measured in the absence of inhibitor, as follows: — % inhibition=100−((S^i/S^o)×100) where S^i is the signal in the presence of inhibitor and S^o is the signal in the presence of DMSO.
as §1
(§4) Results of testing the compounds of the examples in this assay are given in the third- fifth columns of Table 1.

U937 = assay: Cell inhibition assay (SRB cell viability), U937; type: cell-based; conditions: U937 cells
Method: as §2, §3, §1, §4

Hela = assay: Cell inhibition assay (SRB cell viability), Hela; type: cell-based; conditions: 72 h, Hela cells
Method: as §2, §3, §1, §4

Compound: N[C@@H](CCCOc1ccc(CNCc2ccc3cc(C(=O)NO)sc3c2)cc1)C(=O)O [Example 12, (S)-2-Amino-5-(4-{[(2-hydroxycarbamoyl-benzo[b]thiophen-6-ylmethyl)-amino]-methyl}-phenoxy)-pentanoic acid]
- pIC50 [1]: > 7.00

Compound: N[C@@H](CCOc1cccc(NC(=O)CCCCCCC(=O)NO)c1)C(=O)OC1CCCC1 [Example 5, (S)-2-Amino-4-[3-(7-hydroxycarbamoyl-heptanoylamino)-phenoxy]-butyric acid cyclopentyl ester]
- pIC50 (HUT; 72 h, HUT cells): 5.48 to 6.48
- pIC50 [1]: > 7.00
- pIC50 (U937; Homo sapiens, U-937, 72 h): 5.48 to 6.48
- pIC50 (Hela; Homo sapiens, HeLa): 5.48 to 6.48

Compound: N[C@@H](Cc1ccc(Oc2ccc(CNCc3ccc4cc(C(=O)NO)sc4c3)cc2)cc1)C(=O)OC1CCCC1 [Example 26, (S)-2-Amino-3-[4-(4-{[(2-hydroxycarbamoyl-benzo[b]thiophen-6-ylmethyl)-amino]-methyl}-phenoxy)-phenyl]-propionic acid cyclopentyl ester]
- pIC50 (HUT; 72 h, HUT cells): > 6.48
- pIC50 [1]: > 7.00
- pIC50 (U937; Homo sapiens, U-937, 72 h): > 6.48
- pIC50 (Hela; Homo sapiens, HeLa): 5.48 to 6.48

Compound: CC(=O)N[C@H](Cc1ccc(NC(=O)CCCCCCC(=O)NO)cc1)C(=O)O [Example 4, (R)-2-Acetylamino-3-[4(7-hydroxycarbamoyl-heptanoylamino)-phenyl]-propionic acid]
- pIC50 (HUT; 72 h, HUT cells): < 5.48
- pIC50 [1]: < 6.00
- pIC50 (U937; Homo sapiens, U-937, 72 h): < 5.48
- pIC50 (Hela; Homo sapiens, HeLa): < 5.48

Compound: NC(C(=O)OC1CCCC1)C1CCC(Oc2ccc(CNCc3ccc4cc(C(=O)NO)sc4c3)cc2)CC1 (stereo not drawn) [Example 30, Amino-[4-(4-{[(2-hydroxycarbamoyl-benzo[b]thiophen-6-ylmethyl)-amino]-methyl}-phenoxy)-cyclohexyl]-acetic acid cyclopentyl ester]
- pIC50 (HUT; 72 h, HUT cells): > 6.48
- pIC50 [1]: > 7.00
- pIC50 (U937; Homo sapiens, U-937, 72 h): > 6.48
- pIC50 (Hela; Homo sapiens, HeLa): 5.48 to 6.48

Compound: N[C@@H](CCCOc1ccc(CNCc2ccc3cc(C(=O)NO)sc3c2)cc1)C(=O)O [Example 18, (S)-2-Amino-5-(4-{[(2-hydroxycarbamoyl-benzo[b]thiophen-6-ylmethyl)-amino]-methyl}-phenoxy)-pentanoic acid]
- pIC50 [1]: 6.00 to 7.00

Compound: O=C(NO)c1cc2ccc(CNCc3ccc(OCCC[C@H](NC4CCCCC4)C(=O)O)cc3)cc2s1 [Example 23, (S)-2-Cyclohexylamino-5-(4-{[(2-hydroxycarbamoyl-benzo[b]thiophen-6-ylmethyl)-amino]-methyl}-phenoxy)-pentanoic acid]
- pIC50 [1]: > 7.00

Compound: N[C@H](C(=O)O)c1ccc(Oc2ccc(CNCc3ccc4cc(C(=O)NO)sc4c3)cc2)cc1 [Example 25, (S)-Amino-[4-(4-{[(2-hydroxycarbamoyl-benzo[b]thiophen-6-ylmethyl)-amino]-methyl}-phenoxy)-phenyl]-acetic acid]
- pIC50 [1]: > 7.00

Compound: COc1cc(CNCc2ccc3cc(C(=O)NO)sc3c2)ccc1OCCC[C@H](N)C(=O)O [Example 20, (S)-2-Amino-5-(4-{[(2-hydroxycarbamoyl-benzo[b]thiophen-6-ylmethyl)-amino]-methyl}-2-methoxyphenoxy)-pentanoic acid]
- pIC50 [1]: > 7.00

Further lines, with some results ahead:

- pIC50 [1]: > 7.00
Compound: NC(C(=O)O)C1CCC(Oc2ccc(CNCc3ccc4cc(C(=O)NO)sc4c3)cc2)CC1 (stereo not drawn) [Example 31, Amino-[4(4-{[(2-hydroxycarbamoyl-benzo[b]thiophen-6-ylmethyl)-amino]-methyl}-phenoxy)-cyclohexyl]-acetic acid]

- pIC50 [1]: > 7.00
- pIC50 (U937; Homo sapiens, U-937, 72 h): > 6.48
- pIC50 (Hela; Homo sapiens, HeLa): > 6.48
Compound: N[C@H](CCOc1ccc(CNCc2ccc3cc(C(=O)NO)sc3c2)cc1)C(=O)OC1CCCC1 [Example 13, (R)-2-Amino-4-(4-{[(2-hydroxycarbamoyl-benzo[b]thiophen-6-ylmethyl)-amino]-methyl}phenoxy)-butyric acid cyclopentyl ester]
- pIC50 (HUT; 72 h, HUT cells): > 6.48

- pIC50 [1]: > 7.00
- pIC50 (U937; Homo sapiens, U-937, 72 h): > 6.48
- pIC50 (Hela; Homo sapiens, HeLa): > 6.48
Compound: N[C@@H](CCOc1ccc(CNCc2ccc3cc(C(=O)NO)sc3c2)cc1)C(=O)OC1CCCC1 [Example 9, (S)-2-Amino-4-(4-{[(2-hydroxycarbamoyl-benzo[b]thiophen-6-ylmethyl)-amino]-methyl}-phenoxy)-butyric acid cyclopentyl ester]
- pIC50 (HUT; 72 h, HUT cells): > 6.48

- pIC50 [1]: > 7.00
Compound: N[C@@H](Cc1ccc(Oc2ccc(CNCc3ccc4cc(C(=O)NO)sc4c3)cc2)cc1)C(=O)O [Example 27, (S)-2-Amino-3-[4-(4-{[(2-hydroxycarbamoyl-benzo[b]thiophen-6-ylmethyl)-amino]-methyl}-phenoxy)-phenyl]-propionic acid]

- pIC50 [1]: 6.00 to 7.00
- pIC50 (U937; Homo sapiens, U-937, 72 h): 5.48 to 6.48
- pIC50 (Hela; Homo sapiens, HeLa): < 5.48
Compound: CC(=O)N[C@@H](Cc1ccc(NC(=O)CCCCCCC(=O)NO)cc1)C(=O)OC1CCCC1 [Example 1, (S)-2-Acetylamino-3-[4-(7-hydroxycarbamoyl-heptanoylamino)-phenyl]-propionic acid cyclopentyl ester]
- pIC50 (HUT; 72 h, HUT cells): 5.48 to 6.48

- pIC50 [1]: > 7.00
- pIC50 (U937; 72 h): 5.48 to 6.48
- pIC50 (Hela): 5.48 to 6.48
Compound: N[C@@H](CCCOc1ccc(CNCc2ccc3cc(C(=O)NO)sc3c2)cc1)C(=O)OC1CCCC1 [Example 17, (S)-2-Amino-5-(4-{[(2-hydroxycarbamoyl-benzo[b]thiophen-6-ylmethyl)-amino]-methyl}-phenoxy)-pentanoic acid cyclopentyl ester]
- pIC50 (HUT; HUT cells, 72 h): 5.48 to 6.48

- pIC50 [1]: > 7.00
- pIC50 (U937; Homo sapiens, U-937, 72 h): > 6.48
- pIC50 (Hela; Homo sapiens, HeLa): 5.48 to 6.48
Compound: N[C@@H](CC1CCC(Oc2ccc(CNCc3ccc4cc(C(=O)NO)sc4c3)cc2)CC1)C(=O)OC1CCCC1 (stereo partly drawn) [Example 28, 2-(S)-Amino-3-[4-(4-{[(2-hydroxycarbamoyl-benzo[b]thiophen-6-ylmethyl)-amino]-methyl}-phenoxy)-cyclohexyl]-propionic acid cyclopentyl ester]
- pIC50 (HUT; 72 h, HUT cells): > 6.48

- pIC50 [1]: 6.00 to 7.00
- pIC50 (U937; Homo sapiens, U-937, 72 h): 5.48 to 6.48
- pIC50 (Hela; Homo sapiens, HeLa): 5.48 to 6.48
Compound: O=C(NO)c1cc2ccc(CNCc3ccc(OCCC[C@H](NC4CCCCC4)C(=O)OC4CCCC4)cc3)cc2s1 [Example 22, (S)-2-Cyclohexylamino-S-(4-{[(2-hydroxycarbamoyl-benzo[b]thiophen-6-ylmethyl)-amino]-methyl}-phenoxy)-pentanoic acid cyclopentyl ester]
- pIC50 (HUT; 72 h, HUT cells): 5.48 to 6.48

- pIC50 [1]: > 7.00
Compound: N[C@@H](CCOc1ccc(CNCc2ccc3cc(C(=O)NO)sc3c2)cc1)C(=O)O [Example 10, (S)-2-Amino-4-(4-{[(2-hydroxycarbamoyl-benzo[b]thiophen-6-ylmethyl)-amino]-methyl}-phenoxy)-butyric acid]

- pIC50 [1]: > 7.00
Compound: N[C@H](CCCOc1ccc(CNCc2ccc3cc(C(=O)NO)sc3c2)cc1)C(=O)O [Example 16, (R)-2-Amino-5-(4-{[(2-hydroxycarbamoyl-benzo[b]thiophen-6-ylmethyl)-amino]-methyl}-phenoxy)-pentanoic acid]

- pIC50 [1]: 6.00 to 7.00
Compound: N[C@@H](CCOc1ccc(NC(=O)CCCCCCC(=O)NO)cc1)C(=O)O [Example 8, (S)-2-Amino-4-[4-(7-hydroxycarbamoyl-heptanoylamino)-phenoxy]-butyric Acid]

- pIC50 [1]: > 7.00
Compound: N[C@@H](CC1CCC(Oc2ccc(CNCc3ccc4cc(C(=O)NO)sc4c3)cc2)CC1)C(=O)O (stereo partly drawn) [Example 29, 2-(S)-Amino-3-[4-(4-{[(2-hydroxycarbamoyl-benzo[b]thiophen-6-ylmethyl)-amino]-methyl}-phenoxy)-cyclohexyl]-propionic acid]

— US7973181B2, “Hydroxamic acid derivatives as inhibitors of HDAC enzymatic activity” (Chroma Therapeutics Ltd., priority 2005, dated 2011)
